Among the test systems are HCT-116; DU-145; OVCAR-3; SW-620; RPMI-8226; HOP-92; K562; HCC 2998; RXF 393; HOP-62; CCRF-CEM; UO-31; EKVX; TK-10; KM12; IGROV-1; UACC-257; HCT-15; SK-MEL-5; NCI-H522.
What all share (test): NCI tumour cell line growth inhibition, 48 h

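Method: 48-hour compound exposure of cells in 96-well plates, five concentrations, linear interpolation of endpoints. GI50: concentration for 50% inhibition of growth.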 Active and inactive are the calls of the source. Rule as the data show it: active = GI50 up to about 1.1 µM and inactive = higher.

`NC(=O)NCCCC(NC(=O)OCCCCCn1ccc(=O)[nH]c1=O)C(=O)O` (stereo unspecified): the GI50 with HCT-116, with DU-145, with OVCAR-3, in the test with SW-620, in the test with RPMI-8226 and in the test on HOP-92 was > 100 µM (inactive) throughout. In addition, the GI50 in the test on K562, in the test with HCC 2998, in the test with RXF 393, with HOP-62, with CCRF-CEM and in the test on UO-31 was > 100 µM (inactive) in each case. Besides, the GI50 is > 100 µM (inactive) with EKVX; > 100 µM (inactive) in the test on TK-10; > 100 µM (inactive) in the test on KM12; 23.1 µM (inactive) with IGROV-1; > 100 µM (inactive) in the test with UACC-257; greater than 100 µM in the test on HCT-15.
For `CCCCCCCC/C=C/CCCCCCCC1CC(O)C(=O)O1` (stereo unspecified), the GI50 in the test with HCT-116 was 41.1 µM (inactive); with DU-145, 36.7 µM (inactive); in the test with SK-MEL-5, 46.1 µM (inactive); with OVCAR-3, 27.9 µM (inactive); in the test with SW-620, 55.5 µM (inactive); in the test on RPMI-8226 it was 25.8 µM (inactive). The GI50 is 26.7 µM (inactive) in the test on HOP-92; 42 µM (inactive) in the test on K562; 61.4 µM (inactive) in the test on HCC 2998; 41.4 µM (inactive) with HOP-62; 39.9 µM (inactive) in the test on CCRF-CEM; 62.8 µM (inactive) in the test on UO-31. Also, the GI50 in the test with EKVX was 50.8 µM (inactive); in the test with TK-10, > 100 µM (inactive); with IGROV-1, 85.3 µM (inactive); with UACC-257, 46.7 µM (inactive); with HCT-15 it was 43.1 µM.
In the case of `O=C(/C=C/c1ccc2c(c1)OCO2)NCc1ccco1`, the GI50 is > 100 µM (inactive) in the test with HCT-116; > 100 µM (inactive) with DU-145; > 100 µM (inactive) in the test with SK-MEL-5; 82.2 µM (inactive) in the test with OVCAR-3; > 100 µM (inactive) in the test with SW-620; 92.5 µM (inactive) in the test with HOP-92. In addition, the GI50 in the test on K562 is 82.6 µM (inactive); with HCC 2998, > 100 µM (inactive); in the test with HOP-62, > 100 µM (inactive); with CCRF-CEM, > 100 µM (inactive); with UO-31, 67.1 µM (inactive); in the test on EKVX, 71.6 µM (inactive). Moreover, the GI50 is > 100 µM (inactive) in the test with TK-10; > 100 µM (inactive) in the test on KM12; 56 µM (inactive) in the test on IGROV-1; > 100 µM (inactive) with UACC-257; greater than 100 µM with HCT-15.
Consider `Fc1ccc(C2(CCCN3CCc4[nH]c5cc(F)ccc5c4C3)OCCO2)cc1`, for which the GI50 was 11.5 µM (inactive) with HCT-116; 14.7 µM (inactive) in the test on DU-145; 10.9 µM (inactive) with SK-MEL-5; 14.3 µM (inactive) in the test on SW-620; 10.7 µM (inactive) in the test with RPMI-8226; 2.99 µM (inactive) in the test with HOP-92. Moreover, the GI50 in the test with K562 was 4.18 µM (inactive); in the test with HCC 2998 it was 2.13 µM (inactive); with RXF 393 it was 13.5 µM (inactive); in the test on HOP-62, 13 µM (inactive); in the test with CCRF-CEM, 11.8 µM (inactive); in the test with UO-31, 3.33 µM (inactive). In addition, the GI50 with EKVX was 15.3 µM (inactive); in the test with TK-10, 14.8 µM (inactive); in the test on KM12, 13.3 µM (inactive); with IGROV-1, 20.1 µM (inactive); in the test with UACC-257, 4.71 µM (inactive); in the test on HCT-15, 16.4 µM.
Take `Cc1c(Cl)ccc2c(=O)c3cccc(CC(=O)O)c3oc12`: the GI50 with HCT-116, with DU-145, in the test with SK-MEL-5, in the test on OVCAR-3, in the test on SW-620 and in the test with RPMI-8226 was > 100 µM (inactive) each time. In addition, the GI50 in the test on HOP-92, with K562, in the test with HCC 2998, in the test with HOP-62, in the test with CCRF-CEM and with NCI-H522 was > 100 µM (inactive) throughout. Also, the GI50 in the test on UO-31, in the test with EKVX, in the test with TK-10, with KM12, in the test on IGROV-1 and with UACC-257 was > 100 µM (inactive) in each case. The same molecule returned a GI50 in the test with HCT-15 greater than 100 µM.
As to `O=C(O)c1nc2ccc(C(F)(F)F)cc2nc1NCc1ccc(F)cc1`, the GI50 in the test on HCT-116 was 15.9 µM (inactive); in the test on DU-145, > 100 µM (inactive); in the test on SK-MEL-5, 16.9 µM (inactive); with OVCAR-3, 8.34 µM (inactive); with SW-620 it was 33 µM (inactive); in the test on RPMI-8226 it was 21 µM (inactive). The GI50 in the test with HOP-92 is 17.1 µM (inactive); in the test on K562 it was 19.6 µM (inactive); in the test with HCC 2998, 22.8 µM (inactive); in the test on RXF 393 it was > 100 µM (inactive); with HOP-62, 19.1 µM (inactive); in the test on CCRF-CEM, 37.3 µM (inactive). Also, the GI50 with UO-31 was 2.75 µM (inactive); in the test with EKVX, 25.6 µM (inactive); with KM12, 26.4 µM (inactive); with IGROV-1 it was 25.4 µM (inactive); in the test on UACC-257, 22.4 µM (inactive); in the test on HCT-15 it was 21.2 µM.
Take `Cc1ccc2c(c1)C(=O)/C(=N/Nc1ccc(Cl)cc1)CCO2`: the GI50 with HCT-116 is 50.7 µM (inactive); with DU-145, > 100 µM (inactive); in the test with SK-MEL-5, 23.3 µM (inactive); in the test on OVCAR-3, > 100 µM (inactive); in the test on SW-620, > 100 µM (inactive); with RPMI-8226, 36.3 µM (inactive). Besides, the GI50 in the test on HOP-92 was 72.4 µM (inactive); in the test on K562 it was 28 µM (inactive); in the test with HCC 2998, 54.1 µM (inactive); in the test with HOP-62, > 100 µM (inactive); with CCRF-CEM, 46.7 µM (inactive); in the test with NCI-H522 it was 56.1 µM (inactive). In addition, the GI50 was > 100 µM (inactive) with UO-31; > 100 µM (inactive) in the test on EKVX; > 100 µM (inactive) in the test with TK-10; 75 µM (inactive) with KM12; > 100 µM (inactive) in the test on IGROV-1; > 100 µM (inactive) in the test with UACC-257. Besides, in the test on HCT-15, the GI50 was 60 µM.
`C1CCCCC2(CCCCCCCCC3(CCC1)OCCO3)OCCO2`: the GI50 in the test with HCT-116, in the test on DU-145, in the test on SK-MEL-5, with OVCAR-3, in the test on SW-620 and in the test with HOP-92 was > 100 µM (inactive) throughout. Besides, the GI50 in the test on K562 was > 100 µM (inactive); in the test on HCC 2998 it was > 100 µM (inactive); with RXF 393 it was > 100 µM (inactive); with HOP-62, > 100 µM (inactive); in the test on NCI-H522, > 100 µM (inactive); with UO-31, < 0.01 µM (active). Moreover, the GI50 was > 100 µM (inactive) with EKVX; > 100 µM (inactive) in the test on TK-10; > 100 µM (inactive) in the test on KM12; > 100 µM (inactive) in the test with IGROV-1; > 100 µM (inactive) in the test with UACC-257; greater than 100 µM in the test on HCT-15.
Regarding `CCOC(=O)C1CCC(=O)N1C(=O)c1cccc(Cl)c1` (stereo unspecified), the GI50 with HCT-116, with DU-145, in the test with SK-MEL-5, with OVCAR-3, with SW-620 and in the test with RPMI-8226 was > 100 µM (inactive) in each case. The GI50 in the test on HOP-92, in the test on K562, with RXF 393, in the test on HOP-62, in the test with CCRF-CEM and in the test with NCI-H522 was > 100 µM (inactive) throughout. The GI50 in the test on UO-31, in the test on EKVX, in the test with TK-10, in the test on KM12, in the test on IGROV-1 and in the test on UACC-257 was > 100 µM (inactive) each time. This molecule also came in with a GI50 with HCT-15 greater than 100 µM.
As to `N#CC1(C#N)NC(c2ccsc2)C(C#N)(C#N)NC1c1ccsc1` (stereo unspecified), the GI50 in the test on HCT-116, in the test on DU-145, with SK-MEL-5, in the test on OVCAR-3, in the test on SW-620 and with RPMI-8226 was > 100 µM (inactive) throughout. Also, the GI50 in the test on HOP-92 is > 100 µM (inactive); in the test with K562 it was > 100 µM (inactive); with HCC 2998, > 100 µM (inactive); with HOP-62, > 100 µM (inactive); with CCRF-CEM, 80.2 µM (inactive); with NCI-H522 it was > 100 µM (inactive). Besides, the GI50 with UO-31, in the test on EKVX, in the test on TK-10, in the test with KM12, in the test on IGROV-1 and with UACC-257 was > 100 µM (inactive) each time. In addition, in the test on HCT-15, the GI50 is greater than 100 µM.
Regarding `N=C(N)N/N=C/c1c(-c2ccccc2)nc2ccn3c(/C=N/N=C(N)N)c(-c4ccccc4)nc3n12`, the GI50 is 26.6 µM (inactive) in the test with HCT-116; 58.1 µM (inactive) in the test on DU-145; 48.4 µM (inactive) with SK-MEL-5; 68.5 µM (inactive) in the test on OVCAR-3; 36.9 µM (inactive) in the test on SW-620; > 100 µM (inactive) in the test on RPMI-8226. The GI50 in the test with HOP-92 was > 100 µM (inactive); with K562 it was > 100 µM (inactive); in the test with RXF 393, > 100 µM (inactive); in the test with HOP-62, 55.1 µM (inactive); in the test with CCRF-CEM, > 100 µM (inactive); in the test with NCI-H522, 21.3 µM (inactive). The GI50 in the test on UO-31 was 46.5 µM (inactive); with EKVX it was 21.9 µM (inactive); in the test on TK-10 it was 59 µM (inactive); with KM12, 26.9 µM (inactive); in the test on IGROV-1 it was 2.11 µM (inactive); with UACC-257, 23.5 µM (inactive). In the test on HCT-15, this molecule had a GI50 of 38.4 µM.

The values are drawn from ChEMBL document CHEMBL1201862, “PubChem BioAssay data set” (2004).
